Patent US5608047A, “Cyclic ADP-ribose and analogs” (Wisconsin Alumni Research Foundation, priority 1995, dated 1997)

Tested on: rat brain microsomes
Assay: Ca2+ release measurement with fluo-3 in rat brain microsomes
Format: biochemical
Conditions: for EC50: extramicrosomal Ca2+ by fluo-3, read-out: ED50 of Ca^2+ release
Experimental: Ca^2+ release measurements as follows: Rat brain microsomes were prepared on the day of the experiment. Loading of the microsomes with Ca^2+ took approximately 30 minutes at 24° C. and was used at a protein concentration of 0.5 mg/ml. The free Ca^2+ used for Ca^2+ loading was 0.5 to 2 uM and was present in the loading solution as a contaminant. Ca^2+ uptake and release was followed by measuring extramicrosomal Ca^2+ using fluo-3 (Cal-Biochem) (1 uM). Fluorescence intensity of fluo-3 was measured at excitation and emission wavelength of 490 and 535 nm respectively. Fluorimetry was performed on 500 ul aliquots of microsomes using a Perkin Elmer MF-3. Additions were made in volumes of 1-5 ul and all chemicals were added in incubation medium containing 10 uM EGTA. Ca^2+ traces were calibrated by adding Ca^2+ standard solution.
Ca^2+ release measurements were done as outlined in Example 1.

EC50	Compound	Ca^2+ release caused by the substance	further results
–	Nc1ncnc2c1ncn2[C@@H]1O[C@H](COP(=O)(O)OP(=O)(O)OC[C@H]2OC(O)[C@H](O)[C@@H]2O)[C@@H](O)[C@H]1O (stereo partly shown) [ADPR, ADP-ribose]	caused no Ca^2+ release	–
–	NC(=O)c1ccc[n+]([C@@H]2O[C@H](COP(=O)([O-])OP(=O)(O)OC[C@H]3O[C@@H](n4cnc5c(N)ncnc54)[C@H](O)[C@@H]3O)[C@@H](O)[C@H]2O)c1 [β-NAD]	caused no Ca^2+ release	–
–	ryanodine	–	effect on Ca^2+ release induced by cADPR (release induced by cADPR): inhibited release of Ca^2+ by cADPR
100 nM	N=c1c2ncn3c2ncn1[C@@H]1O[C@H](COP(=O)(O)OP(=O)(O)OC[C@H]2O[C@@H]3[C@H](O)[C@@H]2O)[C@@H](O)[C@H]1O [cADPR, cyclic ADP-ribose]	–	–
–	heparin	–	effect on Ca^2+ release induced by IP3 (release induced by IP3): blocked Ca^2+ release induced by IP3
5 nM	N=c1c2ncn3c2ncn1[C@@H]1O[C@H](COP(=O)(O)OP(=O)(O)OP(=O)(O)OC[C@H]2O[C@@H]3[C@H](O)[C@@H]2O)[C@@H](O)[C@H]1O [cATPR, cycle ATP-ribose]	–	potency relative to cADPR (times more potent) (ratio of ED50 values): approximately 20 times
